# Data from patent US20160202206A1, “Matrix-Enhanced Electrochemical Detector for Pathogenic Bacteria” (NORTHEASTERN UNIVERSITY, priority 2013, published 2016).
# Read-outs that look alike come from different tables or passages of the source.
# Columns and labels:
# [1] = system: P. aeruginosa cultures; settings: cited from earlier work
# [2] = system: P. aeruginosa strain PA14; format: cell-based, Pseudomonas aeruginosa; settings: for time to appearance of a pyocyanin signal: M63 minimal media, versus no added amino acid (nearly 24 hours); for effect on pyocyanin production: M63 minimal media or TSB, single amino acid added (tyrosine 3.2 mM, valine 17.6 mM); for up-regulatory effect on pyocyanin production compared with the other amino acids tested: six amino acids tested, M63 minimal media and TSB, scans over 24 hours
# Procedure: All bacterial tests were completed using wild-type P. aeruginosa strain PA14. Cell cultures were routinely grown in trypticase soy broth (TSB) (BD Biosciences 211768) at 37° C. and later stored on TSB agar plates at 4° C. when not in use. All amino acids were purchased from Sigma-Aldrich (St. Louis, Mo.) and dissolved in solution using either TSB or M63 minimal salts medium (Fisher Cat. 50-751-6740) [(NH4)2SO4 (15 mM), KH2PO4 (100 mM)] supplemented with MgSO4 (1 mM) and glycerol (0.027 mM). Electrochemical measurements were performed using commercially available Zensor TE100 (EDAQ ET077) screenprinted electrodes featuring carbon working and counter electrodes. Although the Zensor TE100 electrodes include a silver paste reference, a separate 1 M KCl Ag/AgCl reference electrode (CHI111) was employed to minimize the chances of drift in reference potential during measurements lasting several hours, which can occur when the reference electrode is in direct contact with the sample solution. All electrochemical measurements were recorded using a potentiostat (CHI842C, CH Instruments).
# Individual amino acids were dissolved at specific concentrations in either 10 mL of TSB or M63 media. Each solution was inoculated with a specific concentration of P. aeruginosa and incubated at 37 C. […] of each solution was removed at designated time points and loaded onto a Zensor electrode for electrochemical testing. Square-wave voltammetric scans were performed at potentials ranging from −0.4 to −0.1 V at an amplitude voltage of 0.050 V and a frequency of 15 Hz. Scans were performed for each sample three times with three replicates for each tested condition. The data was analyzed using OriginPro 9.1 (OriginLab Corporation). Baselines were created for each data set using spline interpolation with 8 base points. The resulting baseline-subtracted data set was used to determine the max currents observed from pyocyanin production.
# Liquid cultures of P. aeruginosa were grown in either M63 minimal media or TSB to observe the effect of amino acid addition on the bacteria's production of pyocyanin using the methods described in Example 2. 10 μL of stock PA14 culture was loaded into 10 mL liquid cultures each containing one of six different amino acids (final concentration of 4 million cells per mL). […] Electrochemical scans were taken roughly every two hours over the course of a 24-hour period.
# Tyrosine and valine were prepared at concentrations ranging from those quantified in typical cystic fibrosis infection levels (tyrosine: 0.2 mM, valine: 1.1 mM) to an 80-fold increase, which reached the solubility limit of the amino acids in TSB. The initial concentration of P. aeruginosa loaded in each sample was kept constant at roughly 4 million cells per mL and electrochemical scans were taken every two hours over the course of ten hours. FIGS. 11 A and B show scans taken after eight hours of growth in addition to a control with no amino acid additives. Again, consistent among all scans was the observance of a pyocyanin peak around −0.25 V vs. a Ag/AgCl reference. […] It is possible that valine has an inhibitory effect on pyocyanin production at such high concentrations. While such inhibition has been observed for other molecules (D. J. Musk, D. A. Banko and P. J. Hergenrother, Chem. Biol., 2005, 12, 789-796), P. aeruginosa has not been previously studied at valine concentrations that are over 100 times greater than what is typically found in a pseudomonal infection.
# The next set of tests studied how varying the initial P. aeruginosa cell concentration would affect the production of pyocyanin in the presence of amino acids. TSB media was used as the growth media to which tyrosine and valine were added. Tyrosine (16 mM) and valine (17.6 mM) concentrations were held constant while varying amounts of P. aeruginosa were added into the samples (4, 20, 40, 400 million cells per mL). […]
SMILES,effect on biofilm formation [1],time to appearance of a pyocyanin signal [2],effect on pyocyanin production ([2]; 4 million cells per mL),"effect of varying amino acid concentration on amounts of pyocyanin produced after the critical time point ([2]; TSB, 4 million cells per mL)","effect of varying amino acid concentration on time needed for cells to up-regulate pyocyanin production ([2]; TSB, 4 million cells per mL)","rate of pyocyanin production, 16 mM tyrosine compared with 17.6 mM valine ([2]; TSB, 4 million cells per mL)",up-regulatory effect on pyocyanin production compared with the other amino acids tested [2],other results
N=C(N)NCCC[C@H](N)C(=O)O [arginine],up-regulate biofilm formation,–,–,–,–,–,–,–
N[C@@H](Cc1c[nH]cn1)C(=O)O [histidine],up-regulate biofilm formation,significantly less time,–,–,–,–,–,–
CC(C)C[C@H](N)C(=O)O [leucine],up-regulate biofilm formation,–,–,–,–,–,–,–
O=C(O)[C@@H]1CCCN1 [proline],up-regulate biofilm formation,–,–,–,–,–,–,–
N[C@@H](Cc1ccc(O)cc1)C(=O)O [tyrosine],up-regulate biofilm formation,significantly less time,up-regulatory effect,significant effect,minimal effect,nearly identical,greatest up-regulatory effect in both media,"time of statistically significant increase in current output ([2]; TSB, 16 mM tyrosine, 400 million cells per mL, FIG. 14 A): between four and six hours; time of statistically significant increase in current output ([2]; TSB, 4 million cells per mL, FIG. 12 A): between six and eight hours; pyocyanin produced, 16 mM tyrosine versus 17.6 mM valine ([2]; TSB, initial cell concentrations above 4 million cells per mL): more pyocyanin than 17.6 mM valine; up-regulatory effect on pyocyanin production compared with the other amino acids tested ([2]; listed as Tyrosine): largest up-regulatory effect of the six amino acids tested"
CC(C)[C@H](N)C(=O)O [valine],up-regulate biofilm formation,–,up-regulatory effect,significant effect,minimal effect,nearly identical,largest up-regulatory effect of the six amino acids tested,"pyocyanin production when concentration raised to 88 mM ([2]; TSB, 88 mM versus 17.6 mM valine): decreased; amino acid concentration giving the largest pyocyanin concentration ([2]; TSB, 4 million cells per mL, eight hours of growth): 17.6 mM"
